Results reported in ChEMBL document CHEMBL6120973 (J Med Chem, 2024).

Legend:
[1] = Acute toxicity in male ICR mouse assessed as effect on pathological damage in liver at 2000 mg/kg, IG measured after 14 days by H and E staining based analysis; type: organism-based; settings: in vivo, po, 336 h, time 14 day
[2] = Acute toxicity in female ICR mouse assessed as effect on pathological damage in liver at 2000 mg/kg, IG measured after 14 days by H and E staining based analysis; type: organism-based; settings: in vivo, po, 336 h, time 14 day
[3] = Metabolic stability in human liver microsomes assessed as half-life at 0.1 uM preincubated for 10 mins followed by NADPH addition and measured upto 60 mins by LC-MS/MS analysis; type: ADME, Microsome; settings: time < 70 min
[4] = Acute toxicity in male ICR mouse assessed as effect on pathological damage in spleen at 2000 mg/kg, IG measured after 14 days by H and E staining based analysis; type: organism-based; settings: in vivo, po, 336 h, time 14 day
[5] = system: Human immunodeficiency virus 1; experiment: Antiviral activity against HIV-1 harboring RT Y181C mutant infected in human MT4 cells assessed as protection against virus-induced cytopathic effect incubated for 5 days by MTT assay; type: functional, organism-based; settings: Human immunodeficiency virus 1, MT4, 120 h
[6] = system: Human immunodeficiency virus 1; experiment: Antiviral activity against wildtype HIV-1 IIIB infected in human MT4 cells assessed as protection against virus-induced cytopathic effect incubated for 5 days by MTT assay; type: functional, organism-based; settings: Human immunodeficiency virus 1, IIIB, MT4, 120 h
[7] = target: Human immunodeficiency virus type 1 reverse transcriptase (Human immunodeficiency virus 1, UniProt Q72547); experiment: Inhibition of recombinant wild type HIV-1 Reverse transcriptase incubated for 40 mins by Pico-green reagent based fluorescence analysis
[8] = Acute toxicity in male ICR mouse assessed as effect on pathological damage in kidney at 2000 mg/kg, IG measured after 14 days by H and E staining based analysis; type: organism-based; settings: in vivo, po, 336 h, time 14 day
[9] = Acute toxicity in male ICR mouse assessed as effect on pathological damage in lung at 2000 mg/kg, IG measured after 14 days by H and E staining based analysis; type: organism-based; settings: in vivo, po, 336 h, time 14 day
Cytochrome P450 3A4 = Cytochrome P450 3A4 (Homo sapiens, UniProt P08684); experiment: Inhibition of CYP3A4 in human liver microsomes using testosterone as substrate preincubated for 10 mins followed by NADPH addition and measured after 15 mins by LC/MS/MS analysis
[10] = system: Human immunodeficiency virus 1; experiment: Antiviral activity against HIV-1 harboring RT K103N mutant infected in human MT4 cells assessed as protection against virus-induced cytopathic effect incubated for 5 days by MTT assay; type: functional, organism-based; settings: Human immunodeficiency virus 1, MT4, 120 h
Cytochrome P450 2C9 = Cytochrome P450 2C9 (Homo sapiens, UniProt P11712); experiment: Inhibition of CYP2C9 in human liver microsomes preincubated for 10 mins followed by NADPH addition and measured after 15 mins by LC/MS/MS analysis
[11] = Acute toxicity in female ICR mouse assessed as effect on body weight at 2000 mg/kg, IG measured after 14 days; type: organism-based; settings: in vivo, po, 336 h, time 14 day

Chain of Cytochrome P450 3A4 (P08684 whole entry): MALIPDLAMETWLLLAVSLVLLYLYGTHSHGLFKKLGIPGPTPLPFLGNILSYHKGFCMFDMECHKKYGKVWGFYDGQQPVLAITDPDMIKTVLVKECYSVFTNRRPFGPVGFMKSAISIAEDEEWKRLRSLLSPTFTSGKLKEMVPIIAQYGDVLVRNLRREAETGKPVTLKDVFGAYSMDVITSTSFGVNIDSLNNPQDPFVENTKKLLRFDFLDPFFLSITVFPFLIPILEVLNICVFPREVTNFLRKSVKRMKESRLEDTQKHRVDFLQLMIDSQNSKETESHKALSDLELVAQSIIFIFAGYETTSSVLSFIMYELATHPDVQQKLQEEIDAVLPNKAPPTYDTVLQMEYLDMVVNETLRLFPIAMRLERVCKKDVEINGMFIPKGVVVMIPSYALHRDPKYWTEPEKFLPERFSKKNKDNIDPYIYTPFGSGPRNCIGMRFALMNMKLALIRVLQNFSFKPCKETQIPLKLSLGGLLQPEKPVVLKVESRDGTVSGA
Chain of Cytochrome P450 2C9 (P11712 whole entry): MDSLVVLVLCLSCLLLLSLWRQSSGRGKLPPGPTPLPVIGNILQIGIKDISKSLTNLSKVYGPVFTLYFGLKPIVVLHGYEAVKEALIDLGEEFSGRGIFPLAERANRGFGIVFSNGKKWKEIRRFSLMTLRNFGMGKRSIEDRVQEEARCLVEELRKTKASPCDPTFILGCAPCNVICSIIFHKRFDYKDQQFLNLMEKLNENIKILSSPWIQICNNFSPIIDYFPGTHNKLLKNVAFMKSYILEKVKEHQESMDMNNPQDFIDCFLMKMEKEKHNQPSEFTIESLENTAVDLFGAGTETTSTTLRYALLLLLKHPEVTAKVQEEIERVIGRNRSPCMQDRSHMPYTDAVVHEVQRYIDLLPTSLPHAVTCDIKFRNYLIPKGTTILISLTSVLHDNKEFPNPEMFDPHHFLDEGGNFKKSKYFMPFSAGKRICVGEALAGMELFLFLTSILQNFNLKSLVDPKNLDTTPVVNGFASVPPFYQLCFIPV

Cc1cc(-c2ccncc2)cc(C)c1Nc1nc(Nc2ccc(C#N)cc2)ncc1-c1cn[nH]c1
Activity [1]: Non-toxic
Activity [2]: Non-toxic
half-life at 0.1 µM [3]: 29.9 min
Activity [4]: Non-toxic
EC50 [5]: 13 nM
EC50 [6]: 5 nM
IC50 [7]: 49 nM
Activity [8]: Non-toxic
Activity [9]: Non-toxic
IC50 (Cytochrome P450 3A4): > 50000 nM
EC50 [10]: 7 nM
IC50 (Cytochrome P450 2C9): > 50000 nM
Activity [11]: Non-toxic
